Measurements as given in US20240050398A1, “METHOD AGAINST SNAKE ENVENOMATION” (UBI PHARMA INC., priority 2022, published 2024).
“Also recorded” adds a separate entry of the source.

Assays:
Type in all cases: in vivo
[1] = system: venom of Protobothrops mucrosquamatus; experiment: Efficacy against death caused by hemotoxic venom in ICR mice (flavonoid pre-mixed with venom, intradermal injection); conditions: venom 2.5 × LD50 per mouse, flavonoid 50 nmole per mouse
Protocol: The ICR mice were randomly divided into four groups, which included a pathological control group, two experimental groups (i.e., experimental groups 1 and 2), and one comparative group (n=7 mice in each group). Next, a respective one of the isorhamnetin, the quercetin, and the apigenin was mixed with a venom of Protobothrops mucrosquamatus in a volume ratio of 1:20, followed by incubation at 37° C. for 30 minutes, thereby forming a respective mixture solution. Afterward, the respective ICR mouse of each of the experimental groups 1 and 2 and the comparative group was intradermally injected with a suitable amount of the mixture solution as shown in Table 2 below. In addition, the respective ICR mouse in the pathological control group was intradermally injected with the venom of Protobothrops mucrosquamatus.
Subsequently, the survival number of the ICR mice in each group was observed and recorded at every hour until 10 hours after injection with the treating agent. The viability percentage (%) of the ICR mice in each group was calculated using the following Equation (1):
where A=viability percentage (%)
B=survival number of the ICR mice at every hour until 10 hours after injection with treating agent

venom of Naja nivea = experiment: Efficacy of isorhamnetin in alleviating toxicity from neurotoxic venom in ICR mice (isorhamnetin injected 30 minutes after venom); conditions: 48th hour after injection; isorhamnetin 50 nmole per mouse 30 minutes after venom 2.5 × LD50
Protocol: To closely simulate conditions of an emergency treatment in which the subject was a victim of a venomous snake bite, in this application, the ICR mice were injected with the venom of Naja nivea and the isorhamnetin separately (with a time interval therebetween) instead of simultaneously (i.e., mixed in advance for injection).
First, the ICR mice were randomly divided into two groups, including a pathological control group (i.e., pathological control group 7) and an experimental group (i.e., experimental group 7) (n=7 mice in each group). Next, the respective ICR mouse in each group was intradermally injected with a suitable amount of the venom of Naja nivea (dose: 2.5×LD50 per mouse). After 30 minutes, the respective ICR mouse in the experimental group was intradermally injected again with a suitable amount of the isorhamnetin (dose: 50 nmole per mouse).
Subsequently, the survival number of the ICR mice in each group was observed and recorded at every hour until 48 hours after injection with the treating agent. The viability percentage (%) of the ICR mice in each group was calculated using the Equation (1).

[2] = system: snake venom protein mixture (cardiotoxins and high molecular weight proteins from the venom of Naja atra); experiment: Cutaneous ulceration caused by snake venom proteins in ICR mice, topical administration; conditions: via topical administration
Description: (§1) For further study of the efficacy of isorhamnetin and quercetin in alleviating cutaneous ulceration caused by snake venom proteins, the applicants conducted experiments using a snake venom protein mixture containing snake venom proteins having a molecular weight of not lower than 43 kD and a cardiotoxin that might cause tissue necrosis, so as to avoid sudden death of the ICR mice due to other toxins that might have interfered with the observation.
(§2) First, cardiotoxins were isolated from a suitable amount of the venom of Naja atra with reference to the methods descried in SC Sue et al., (2001), Biochemistry, 40, 12782-12794. […] Next, the cardiotoxins and the high molecular weight proteins were mixed, so as to obtain a snake venom protein mixture containing 0.5 mg/mL of the cardiotoxins and 0.025 mg/mL of the high molecular weight proteins.
For further evaluating whether or not a similar result, as that of the experimental group 2 in Section A of this example, could be obtained when the isorhamnetin was applied via topical administration immediately after a subject suffered from a venomous snake bite, the following experiments were conducted.
First, 3.1 mg of the isorhamnetin was mixed with 1 mL of petroleum jelly in a melted state at 45° C., thereby obtaining an isorhamnetin ointment. […]

[3] = system: snake venom protein mixture (cardiotoxins and high molecular weight proteins from the venom of Naja atra); experiment: Cutaneous ulceration caused by snake venom proteins in ICR mice, intradermal injection; conditions: for area of cutaneous ulcers compared to pathological control group (in words): 24th hour after injection, 50 nmole per mouse pre-mixed with 0.1 mL snake venom protein mixture, intradermal; for median effective dose (ED50) for reducing an area of a cutaneous ulcer: administered via intradermal injection
Description: as §1, §2
First, the ICR mice were randomly divided into three groups, including a pathological control group and two experimental groups (i.e., experimental groups 1 and 2) (n=7 mice in each group). Next, a respective one of the quercetin and isorhamnetin was mixed with a suitable amount of the snake venom protein mixture in a volume ratio of 1:20, followed by incubation at 37° C. for […], thereby forming a respective mixture solution. Afterward, the respective ICR mouse of the experimental groups 1 and 2 was intradermally injected with a suitable amount of the mixture solution as shown in Table 4 below. In addition, the respective ICR mouse in the pathological control group was intradermally injected with the snake venom protein mixture.
At the 24th hour after injection with the treating agent, cutaneous ulcers occurring in the ICR mice of each group were photographed and the area thereof was analyzed using ImageJ software.

Row | SMILES | effect against death caused by a hemotoxic venom (in words) [1] | survival (in words) (venom of Naja nivea) | median effective dose (ED50) for reducing an area of a cutaneous ulcer [2] [µM] | area of cutaneous ulcers compared to pathological control group (in words) [3] | median effective dose (ED50) for reducing an area of a cutaneous ulcer [3] [µM]
1 | O=c1cc(-c2ccc(O)cc2)oc2cc(O)cc(O)c12 [apigenin, reference compound] | may accelerate death |  |  |  | 
2 | COc1cc(-c2oc3cc(O)cc(O)c3c(=O)c2O)ccc1O [isorhamnetin] | effective against death caused by a hemotoxic venom | could even survive until the 48th hour | 600 | significantly reduced; also recorded: highest degree of reduction | 200
3 | O=c1c(O)c(-c2ccc(O)c(O)c2)oc2cc(O)cc(O)c12 [quercetin] | effective against death caused by a hemotoxic venom |  |  | significantly reduced | 1200
